The source of these data is PubChem BioAssay AID179 (DTP/NCI, 2004).

pEC50, pIC50: −log10 of the molar value. Calls of active or inactive are those of the source.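 The calls were made as follows: active = compounds giving half or more protection of infected cells from virus-caused growth loss, again on retest; inactive = the rest.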 Where a SMILES comes first, the peptide text is derived from it.

This assay relates to CEM cells HIV-1 protection, formazan growth assay. The experiment in a line: NCI AIDS Antiviral Assay. The conditions noted are these: for pIC50: measured here: growth of uninfected CEM cells. Put shortly: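 Steps: treat uninfected and HIV-1-infected human CEM cells at five drug levels; quantify growth by soluble formazan; retest any compound reaching 50% protection; classify actives from the retest.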

In the case of `CCOP(=O)(OCC)/C(C#N)=C/C=C/c1ccco1`, the pEC50 is < 3.19 and the negative-log IC50 (pIC50) is 3.83.

Take `COC(=O)C1=C(C)NC(CF)=C(C(=O)OC)C1c1cccc2c(=O)c3ccccc3oc12` (stereo not drawn): the pEC50 is < 3.70 and the pIC50 is 5.46.

With `CCNc1ncc2nc(CC(=O)OC)c(=O)n(CC)c2n1`, the pEC50 is < 3.70 and the pIC50 is < 3.70.

Turning to `O=c1c(Cl)nsnc1Cl`, the pEC50 is < 3.31 and the pIC50 was 4.55.

Turning to `O=C(C=Nc1ccccc1C(=O)[O-])c1cccs1.O=C(C=Nc1ccccc1C(=O)[O-])c1cccs1.[Zn+2]`, the result was inactive.

For `CC1(SCC(N)C(=O)O)CC(=O)NC1=O` (stereo not drawn), the pEC50 is < 3.70 and the negative-log IC50 (pIC50) was < 3.70.

On to `FC1(F)[Se]C2C3CCC(C3)C2C1(F)F` (stereo not drawn), for which the pEC50 is < 3.70 and the pIC50 was < 3.70.

Turning to `COc1ccc(C(c2c(O)c3ccccc3n(C)c2=O)c2c(O)c3ccccc3n(C)c2=O)cc1`, the pEC50 is < 5.09 and the negative-log IC50 (pIC50) was < 5.09.

For the molecule `O=C(/C=C/c1ccc(O)c(O)c1)O[C@H]1CCCC[C@@H]1OC(=O)/C=C/c1ccc(O)c(O)c1`, the pEC50 was < 4.00 and the negative logarithm of the IC50 (pIC50) was 5.24.

In the case of `c1csc(-c2cc(-c3ccsc3)c(-c3ccsc3)s2)c1`, the pEC50 is < 3.70 and the negative logarithm of the IC50 (pIC50) was 3.83.

As to `O=C1CS(=O)(=O)C(c2ccccc2Cl)N1N1C(=O)CS(=O)(=O)C1c1ccccc1Cl` (stereo not drawn), the pEC50 is < 3.70 and the pIC50 is 4.33.

On to `CCC1CN2CCc3c([nH]c4ccccc34)C2C[C@@H]1CC(=O)N(C)C` (stereo partly drawn), for which the pEC50 is < 3.83 and the pIC50 is < 3.83.

Take `CC(C)CC(NC(=O)C(Cc1ccc(O)cc1)NC(=O)C(CO)NC(=O)C(N)CCC(=O)O)C(=O)NCC(=O)O` (stereo not drawn) (H-ESYLG-OH; configuration not given here): the result was inactive.

For `O=C1NC(=O)C(=Cc2cccc(F)c2)C(=O)N1`, the pEC50 is < 3.95 and the negative-log IC50 (pIC50) was < 3.95.

For `CC1=C/C(=C(\c2cc(C)c(O)c(Br)c2)c2ccccc2S(=O)(=O)O)C=C(Br)C1=O`, the result was inactive.

Take `Cc1cccc(C)c1NC(=S)N/C=C(\C#N)C(N)=O`: the pEC50 is < 3.70 and the pIC50 is < 3.70.

With `COc1ccc(-c2[nH]c(-c3ccc(OC)cc3)c(-c3ccccn3)c2-c2ccccn2)cc1`, the pEC50 was < 3.70 and the pIC50 is 4.61.

Consider `O=C1/C(=C/c2ccc(Br)s2)NC(=S)N1CN1CCOCC1`, for which the pEC50 was < 3.70 and the pIC50 was 4.44.

Regarding `COC1CC(OC)C2OC(c3ccccc3)OCC2O1` (stereo not drawn), the result was inactive.

For the molecule `C[C@@H]1c2c([nH]c(=O)[nH]c2=O)O[C@@H]1c1ccccc1`, the pEC50 is < 3.70 and the pIC50 was < 3.70.

As for `O=C(CNc1c(Cl)cccc1Cl)NC1C=Cc2ccc(S(=O)(=O)Nc3c(Cl)cccc3Cl)cc2C1=O` (stereo not drawn), the pEC50 was < 3.70 and the pIC50 was 3.91.

Consider `OCC1OC2NC(=S)OC2C(O)C1O` (stereo not drawn), for which the pEC50 is < 3.70 and the pIC50 was < 3.70.

`O=C(O)CN(CC(=O)O)Cc1cc(C#Cc2ccc(C#Cc3ccccc3)cc2)cc(CN(CC(=O)O)CC(=O)O)n1`: the pEC50 is < 4.11 and the pIC50 was 4.71.

As for `O=C1NC2C(=CC(O)C(O)C2O)c2cc3c(cc21)OCO3` (stereo not drawn), the pEC50 was < 5.07 and the pIC50 is 6.76.

Turning to `c1ccc(-c2c(-c3cccs3)[nH]c(-c3cccs3)c2-c2ccccn2)nc1`, the pEC50 is < 4.42 and the negative logarithm of the IC50 (pIC50) was 4.59.

As to `C=C=C(C(=O)OC)S(=O)c1ccc([N+](=O)[O-])cc1[N+](=O)[O-]` (stereo not drawn), the outcome was inactive.

With `Cc1cc(N(CCC#N)CCC#N)ccc1N=Nc1ccccc1[N+](=O)[O-]`, the pEC50 is < 4.84 and the pIC50 was < 4.84.

On to `O=C1c2ccccc2-c2nnsc21`, for which the pEC50 is < 3.72 and the pIC50 is 3.85.

In the case of `BrCc1ccccc1C[P+](c1ccccc1)(c1ccccc1)c1ccccc1`, the pEC50 is < 3.70 and the pIC50 is 5.61.

As for `COc1c2occc2c(N=Cc2ccncc2)c2ccc(=O)oc12`, the pEC50 was < 4.40 and the pIC50 is < 4.40.

Regarding `CNc1ncc2nc(C(=O)O)c(=O)n(C)c2n1`, the pEC50 was < 3.70 and the negative-log IC50 (pIC50) was < 3.70.

In the case of `CC(C)CCC[C@@H](C)[C@H]1CC[C@H]2[C@@H]3CC[C@H]4C[C@@H](NC(=O)CC=C(c5cc(Cl)c(O)c(C(=O)O)c5)c5cc(Cl)c(O)c(C(=O)O)c5)CC[C@]4(C)[C@H]3CC[C@]12C`, the negative-log EC50 (pEC50) was 4.62 and the pIC50 was 3.77.

Take `CC(C)OC(=S)SSC(=S)NCCNC(=S)SSC(=S)OC(C)C`: the pEC50 was < 3.70 and the pIC50 was 5.01.

In the case of `Cc1nc2ccccc2n1C(=O)c1c(F)c(F)c(F)c(F)c1F`, the pEC50 is < 3.70 and the pIC50 was 4.47.

For `CC(C)(C)N/N=C(\C(=O)Nc1ccc([N+](=O)[O-])cc1[N+](=O)[O-])c1nc2ccc([N+](=O)[O-])cc2[nH]c1=O`, the pEC50 was < 4.84 and the pIC50 was < 4.84.

`Cc1ccsc1C(=S)Nc1ccc(Cl)c(C(=O)OC(C(C)C)C(C)C)c1`: the pEC50 was 6.51 and the negative-log IC50 (pIC50) was 4.67.

With `COc1cccc(C2SC(N)=Nc3c2c(C)nn3C(=O)c2ccccc2O)c1` (stereo not drawn), the pEC50 is < 5.70 and the negative logarithm of the IC50 (pIC50) is 6.77.

For the molecule `CCOC(=O)Cc1cc(=O)oc2cc(O)ccc12`, the pEC50 was < 3.70 and the pIC50 was 3.78.

For the molecule `Cc1nn(C(=O)c2ccncc2)c2c1C(c1ccc([N+](=O)[O-])cc1)SC(N)=N2` (stereo not drawn), the pEC50 was < 3.70 and the pIC50 is 3.90.

As for `Nc1ccc(/C=C/c2ccc(N=Nc3ccc(/C=C/c4ccc(N)cc4S(=O)(=O)O)c(S(=O)(=O)O)c3)cc2S(=O)(=O)O)c(S(=O)(=O)O)c1`, the pEC50 was 5.03 and the pIC50 was 3.78.

In the case of `COc1ccc(-c2c(C#N)c(-c3ccccc3)n(NS(=O)(=O)c3ccccc3)c(=O)c2C#N)cc1`, the pEC50 is < 3.70 and the negative logarithm of the IC50 (pIC50) was 4.35.

As to `O=C(c1ccccc1)C1C[C@H]2CO[C@H](c3ccccc3)N2C1=O` (stereo partly drawn), the pEC50 was < 3.70 and the pIC50 was 4.16.

For `Cc1cn(C2CC(N=[N+]=[N-])C(COC(=O)CCCCCCCCCCCF)O2)c(=O)[nH]c1=O` (stereo not drawn), the pEC50 is 6.79 and the negative-log IC50 (pIC50) is 5.70.

With `CC1OC(OC2C(Oc3cc(O)c4c(=O)cc(-c5ccc(O)cc5)oc4c3)OC(CO)C(O)C2O)C(O)C(O)C1O` (stereo not drawn), the pEC50 was < 3.37 and the pIC50 was < 3.37.

On to `COC(=O)[C@@H]1C=C[C@H](OC2OC(COC(C)=O)C(OC(C)=O)C(OC(C)=O)C2OC(C)=O)n2c(=O)n(-c3ccccc3)c(=O)n21` (stereo partly drawn), for which the pEC50 is < 3.70 and the pIC50 was 5.97.

Regarding `CC(C)[Si]([Se]c1ccccc1)(C(C)C)C(C)C`, the pEC50 was < 4.66 and the pIC50 was < 4.66.

`CCN(CC)CCNC(=O)c1ccc(I)cc1`: the pEC50 was < 3.70 and the pIC50 was < 3.70.

On to `Cc1ccnc(NC(NC(=O)c2ccccc2)(C(F)(F)F)C(F)(F)F)c1`, for which the outcome was inactive.

For the molecule `C=CCN(CCNS(=O)(=O)c1ccc(C)cc1)S(=O)(=O)c1ccc(C)cc1`, the pEC50 was < 4.48 and the pIC50 was < 4.48.

Consider `Cc1cn(C(C)OCCN2C(=O)c3ccccc3C2=O)c(=O)[nH]c1=O` (stereo not drawn), for which the pEC50 is < 3.70 and the pIC50 is < 3.70.

Regarding `Cc1cc(C(C)(C)C)cc(Cc2cc(C(C)(C)C)cc(Cc3cc(C(C)(C)C)cc(C)c3O)c2O)c1O`, the pEC50 is < 4.70 and the negative logarithm of the IC50 (pIC50) is < 4.70.

Turning to `CCNC(=S)NCCc1c[nH]c2ccccc12`, the pEC50 was < 3.70 and the pIC50 was 3.73.

For the molecule `Nc1ccc(CCN2CCN(c3cccc(C(F)(F)F)c3)CC2)cc1I`, the outcome was inactive.

Regarding `Clc1cccc(-c2sc(-c3ccsc3)cc2Cc2ccsc2)c1`, the result was inactive.

Take `O=C1OC2(O)c3ccccc3C(=O)N2N2CCCCC12` (stereo not drawn): the pEC50 was < 3.19 and the negative-log IC50 (pIC50) is < 3.19.

Turning to `CC(C)CCC[C@@H](C)C1CCC2[C@@H]3CC(OS(=O)(=O)O)C4C[C@@H](O)CC[C@]4(C)C3CC[C@@]21C` (stereo partly drawn), the pEC50 is < 4.31 and the pIC50 was < 4.31.

On to `CC1=NC(=O)CNN1C1=NNC2(C(=O)N1)c1ccccc1-c1ccccc12`, for which the pEC50 was < 4.00 and the pIC50 was < 4.00.

In the case of `COc1ccc2c3c(c(C(=O)O)oc13)CCC2`, the outcome was inactive.

In the case of `Cc1ccc(S(=O)(=O)N2CCCCN(S(=O)(=O)c3ccc(C)cc3)Cc3ccccc3OCCOCCOc3c4cccc3Cc3cccc5c3OCCOCCOc3ccccc3CN(S(=O)(=O)c3ccc(C)cc3)CCCN(S(=O)(=O)c3ccc(C)cc3)Cc3ccccc3OCCOCCOc3c(cccc3C4)Cc3cccc(c3OCCOCCOc3ccccc3C2)C5)cc1`, the pEC50 was < 4.00 and the negative-log IC50 (pIC50) was < 4.00.

Take `COC(=O)NC1=Nc2ccccc2N(C(=O)Oc2ccccc2)S1`: the pEC50 was < 4.12 and the negative logarithm of the IC50 (pIC50) is 5.03.

`Cn1cc(NC(=O)Nc2cc(C(=O)Nc3ccc4cc(S(=O)(=O)O)cc(S(=O)(=O)O)c4c3)n(C)c2)cc1C(=O)Nc1ccc2cc(S(=O)(=O)O)cc(S(=O)(=O)O)c2c1`: the pEC50 was 4.10 and the negative-log IC50 (pIC50) was < 3.70.

As for `Cc1ccc(S(=O)(=O)SC(C)(C)C)cc1`, the pEC50 is < 4.53 and the pIC50 was 5.03.

Take `CC(CCC=C(c1cc(Cl)c(O)c(C(=O)O)c1)c1cc(Cl)c(O)c(C(=O)O)c1)C1CCC2[C@@H]3CC[C@@H]4CC(F)(F)CC[C@]4(C)C3CC[C@]12C` (stereo partly drawn): the pEC50 is < 3.77 and the negative-log IC50 (pIC50) was 4.42.

As for `CC1(C)CCCCCCCCCC2CC2CCC(C)(C)C1=O` (stereo not drawn), the pEC50 was < 3.70 and the pIC50 was < 4.00.

For `COC(=O)C([C@H](NC1(c2ccccc2)c2ccccc2-c2ccccc21)C(=O)OC)N(NC(=O)OCc1ccccc1)C(=O)OCc1ccccc1` (mixture of isomers), the pEC50 is < 3.70 and the negative logarithm of the IC50 (pIC50) was 3.96.

In the case of `O=C(CSc1nnc(-c2ccc(N=Cc3ccc(Cl)cc3)cc2)o1)Nc1ccccc1[N+](=O)[O-]`, the pEC50 is < 4.69 and the pIC50 is < 4.69.

Broadly, the pEC50 is −log10 of the EC50, conventionally taken in molar units. For orientation: pIC50 means −log10 of the IC50, conventionally taken in molar units. Lower therefore signals a large IC50.
